Common to all, as to format: cell-based, human
Test [1] deals with initial NCSCs (expressing p75 NGFR or HNK1). The test is described as follows: Gene expression analysis of NCSCs after second differentiation with axial specification stimulating factor. On the procedure:
The NCSCs at the neural plate border-stage (cells on Day 5 of the differentiation) expressing p75 NGFR or HNK1 isolated by FACS in Example 3-1 were re-seeded at 300,000 cells per well in a 24-well plate coated with Geltrex, Matrigel, or Laminin+Fibronectin. After 24 hours, the PIM medium added on Day 5 for stabilization was gradually changed to a neurobasal medium containing 2% B-27 supplement, 1% N2 supplement, and 1% Glutamax together with fibroblast growth factor 2 (FGF2) (Table 2). As an axial specification stimulating factor, FGF2 was added to the culture medium on days 6 to 10 of differentiation, and the proliferated neural crest stem cells were purified by FACS using an antibody against the neural crest stem cell surface antigen p75 NGFR on days 11 to 14 of differentiation (FIG. 4).
Accordingly, it was confirmed that the role of the non-NCSCs is to activate FGF signaling of the initial NCSCs, inducing to cranial specification.

In another test the test system is initial NCSCs. The test is described as follows: Mechanism analysis of axial specification of initial NCSCs by signaling factors (immunochemical analysis, FACS). Conditions: initial NCSCs isolated on Day 5; for ETS1 protein expression: FGF2 effect through BMP4. The text has this:
(§1) The initial NCSCs were isolated on Day 5 of the differentiation, and then, on Days 5 or 10, the expression of the ETS1 protein was confirmed in the FGF2-treated NCSCs by immunochemical analysis, and the direct effects of various signaling factors on the initial NCSCs were confirmed by FACS analysis.

Test [2] concerns NCSCs at the neural plate border-stage. The experiment in a line: mRNA expression of cranial and cardiac NCSC markers after second differentiation. The text has this:
The NCSCs (those on Day 5 of the differentiation) at the neural plate border-stage obtained through the first differentiation in Example 3-1 were re-distributed and each treated with bFGF or CHIR99021+ retinoic acid to be differentiated into cranial NCSCs or cardiac NCSCs.

The next test relates to SOX9 reporter hESCs. The test is described as follows: Differentiation into cranial NCSCs using SOX9 reporter hESC (FACS).
Excerpt: as §1
When NCSCs were differentiated without FGF2 treatment using SOX9: reporter hESC, a known marker of cranial NCSCs, the differentiation efficiency into cranial NCSCs was approximately 25%, and when treated with bFGF, the percentage of SOX9-expressing cells was 80% or more (FIGS. 8C and 8D).

Setting [3] is: NCSCs treated at second differentiation.

Consider fibroblast growth factor 2 [FGF2], for which, in test [1] (setting [3]), the “expression of the HOX gene” value is listed as “decreased expression” and the “expression of the TWIST1 gene (marker gene of cranial NCSCs)” value was “increased expression”. Also, the “expression ratio of ETS1/ZIC1” value in test [1] (second culture for 5 days, isolated initial NCSC group and unisolated mixed cell group) is given as “increased”. The “ZIC1 gene expression in single cells” value in test [1] (single NCSCs, from Day 4) is “significant decrease”. Moreover, in the test on initial NCSCs, the ZIC1 gene expression entry is listed as “inhibit” and the ETS1 protein expression result is listed as “promotion”. Further, the ZIC1 gene expression entry in the test with initial NCSCs (listed as bFGF) is listed as “inhibitory effect”. For the same molecule, in test [2], the “mRNA expression of PRRX2 (cranial NCSC marker)” value is recorded as “increased”, the “mRNA expression of SOX9 (cranial NCSC marker)” value is “increased” and the “mRNA expression of TWIST1 (cranial NCSC marker)” value is “increased”. Further, the “percentage of SOX9-expressing cells” value in the test with SOX9 reporter hESCs (SOX9 reporter hESC, cranial NCSC differentiation) is recorded as no less than 80%. For the same molecule, the “differentiation efficiency from SOX9 reporter hESCs into cranial neural crest stem cells” value in the test on SOX9 reporter hESCs (two-step differentiation method) is “about 80%”.

B1: BMP4: signaling protein promoting ETS1 in initial neural crest stem cells (protein, UniProt P12644 293-408, looked up)
Bone morphogenetic protein 4: SPKHHSQRARKKNKNCRRHSLYVDFSDVGWNDWIVAPPGYQAFYCHGDCPFPLADHLNSTNHAIVQTLVNSVNSSIPKACCVPTELSAISMLYLDEYDKVVLKNYQEMVVEGCGCR
For B1, in the test with initial NCSCs, the ETS1 protein expression entry is recorded as “promotion”.

(Values after patent US20260201324A1, “METHOD FOR DIFFERENTIATING NEURAL CREST STEM CELLS COMPRISING AXIAL SPECIFICATION INFORMATION” (BLESS BIOTHERAPEUTICS INC., priority 2022, published 2026).)
